Laboratory results: patent US6008258A (priority 1998, dated 1999)
Entries after “also recorded” stand apart in the source; their conditions may differ. Structures can show the parent of a compound that is named as a salt. Where two headings read alike, the source gives them in different places.

Tests used:
[1] = system: NMDA-induced nociceptive behaviors; conditions: Okano et al.; cited from earlier work
[2] = system: formalin-induced nociceptive behavior; conditions: pretreatment, literature, cited from earlier work
[3] = system: NMDA receptor in rat cortical membranes; conditions: rat cortical membranes (Ebert); cited from earlier work
[4] = system: pain syndromes unresponsive to morphine; conditions: anecdotal case reports; cited from earlier work
[5] = system: NMDA-induced depolarization; conditions: in vitro (Ebert), cited from earlier work
[6] = system: mu-type of the opioid receptor; conditions: Neil; cited from earlier work
[7] = target: NMDA receptor, rat forebrain; conditions: used to calculate Ki; no footnote a; read-out: Kd (CGS19755), forebrain; cited from earlier work
[8] = system: spinal cord neurons; conditions: Dickenson et al.; cited from earlier work
[9] = system: morphine tolerance; conditions: Elliott et al.; cited from earlier work
[10] = system: rat; format: in vivo
[11] = system: NMDA receptors; conditions: cited from earlier work
[12] = system: NMDA-induced behaviors; assay: Intrathecal NMDA-induced nociceptive behaviors
[13] = system: rat; assay: Tail-flick test, intrathecal, cumulative dose-response and time course; conditions: for blockade of antinociceptive effect of l-methadone: naloxone 30 μg/rat + l-methadone 80 μg/rat IT; for antinociceptive (analgesic) effect in tail-flick test: up to cumulative 460 μg/rat
[14] = system: rat; assay: Formalin test (formalin-induced flinching), intrathecal drug
[15] = system: NMDA receptor (noncompetitive MK-801 site), rat forebrain; format: binding
[16] = system: humans; conditions: humans (Olsen); cited from earlier work
[17] = system: mice; conditions: mice (Smits); cited from earlier work
[18] = system: rat; conditions: rats (Ingoglia); cited from earlier work

3-amino-5-phosphonovaleric acid [APV]
antagonism of NMDA-induced nociceptive behaviors [1]: antagonized | effect on nociceptive responses in formalin test [2]: reduces

CCC(=O)C(CC(C)N(C)C)(c1ccccc1)c1ccccc1 (racemic) [dl-Methadone]
affinity for the NMDA receptor [3]: low μm affinity | management of pain syndromes unresponsive to morphine [4]: successful management | effect on NMDA-induced depolarization [5]: reduced NMDA-induced depolarizations | effect on NMDA-induced depolarization ([5]; listed as racemic methadone): reduces NMDA-induced depolarization | binding to mu-type of the opioid receptor [6]: binds preferentially

O=C(O)[C@@H]1C[C@H](CP(=O)(O)O)CCN1 [CGS19755]
Kd [7]: 24 nM

COc1ccc2c(c1)[C@]13CCCC[C@@H]1[C@H](C2)N(C)CC3 [Dextromethorphan]
effect on wind up of spinal cord neurons [8]: suppresses | effect on nociceptive responses in formalin test [2]: attenuates nociceptive responses | effect on nociceptive responses in formalin test ([2]; listed as dextromethorphan): reduces | effect on development of tolerance to morphine [9]: attenuates and reverses

CNC1(c2ccccc2Cl)CCCCC1=O (centres unmarked) [Ketamine]
effect on nociceptive responses in formalin test [2]: reduces

O=C(O)[C@@H]1C[C@H]2C[C@@H](CP(=O)(O)O)CC[C@H]2CN1 [LY274614]
effect on development of tolerance to morphine [9]: attenuates and reverses

C[C@]12N[C@H](Cc3ccccc31)c1ccccc12 [MK-801, (+)-5 methyl-10,11-dihydro-5H-dibenzo[a,d]cyclo-hepten-5, 10-imine hydrogen maleate]
effect on nociceptive responses in formalin test [2]: reduces | effect on development of tolerance to morphine [9]: attenuates and reverses

CN1CC[C@]23c4c5ccc(O)c4O[C@H]2[C@@H](O)C=C[C@H]3[C@H]1C5 [Morphine]
Morphine ED50 (95% CI) ([10]; SALINE + MORPHINE, Day 2 (so in the source)): 37.6 (28.5-56.7) ug/rat | Morphine ED50 (95% CI) ([10]; SALINE, Day 1): 1.0 (0.5-1.8) ug/rat | binding to NMDA receptors [11]: do not bind to NMDA receptors

CN[C@H](CC(=O)O)C(=O)O [NMDA, N-methyl-D-aspartate]
ED99 dose of NMDA ([12]; intrathecal): 2.4 nmol/rat | NMDA ED50 (95% CI) ([12]; pretreatment with saline or d-methadone 250 μg/rat): 1.3 (1.0-1.6) nmol/rat IT

C=CCN1CC[C@]23c4c5ccc(O)c4O[C@H]2C(=O)CC[C@@]3(O)[C@H]1C5 [Naloxone]
effect of naloxone alone on base-line tail-flick latencies / antinociception ([13]; 30 μg/rat spinal): did not affect base-line tail-flick latencies or produce an antinociceptive (analgesic) response | blockade of antinociceptive effect of l-methadone [13]: completely blocked | blockade of antinociceptive effect of l-methadone ([13]; listed as naloxone): completely blocked; also recorded: blocks; also recorded: effectively antagonized | duration of blockade of l-methadone effect ([13]; naloxone 30 μg/rat vs l-methadone 80 μg/rat): at least 75 minutes | reversal by naloxone of antinociceptive effect of d-methadone ([14]; naloxone 30 μg/rat + d-methadone 250 μg/rat IT): did not affect; also recorded: not reversed; also recorded: not blocked

O=C1CC[C@@]2(O)[C@H]3Cc4ccc(O)c5c4[C@@]2(CCN3CC2CC2)[C@H]1O5 [Naltrexone]
displacement of [3H]MK-801 binding [15]: did not displace | Ki ([15]; read-out: [3H]MK-801 Ki, forebrain): > 100000 nM

CCC(=O)C(C[C@H](C)N(C)C)(c1ccccc1)c1ccccc1 [d-Methadone, (S)-(+)-methadone]
development of morphine tolerance ([10]; rat, in vivo): prevented the development of morphine tolerance | effect of d-methadone alone on morphine ED50 ([10]; rat, in vivo): did not alter | morphine ED50 in d-methadone+morphine group ([10]; rat, in vivo): not significantly increased | antinociceptive (analgesic) effect in tail-flick test ([13]; intrathecal): no antinociceptive effects | antinociceptive (analgesic) effect in tail-flick test ([13]; intrathecal, listed as d-methadone): None of the rats that received d-methadone became an analgesic responder; also recorded: no analgesia | analgesic potency vs l-methadone (less potent) [16]: 50 fold | blockade of an ED99 dose of NMDA ([12]; 250 μg (809 nmol)/rat, NMDA 2.4 nmol/rat): completely blocked | increase of NMDA ED50 ([12]; d-methadone 250 μg/rat): more than 3 fold | opioid-like locomotor activity [17]: does not produce opioid-like locomotor activity | effect on phase 2 flinching vs saline ([14]; 250 μg/rat IT, with or without naloxone 30 μg/rat): significantly reduce | decrease in phase 2 flinching ([14]; 320 μg/rat spinal): 68% | effect on number of flinches, phase 1 ([14]; IT 32, 160, 320 μg/rat, 0-10 minutes): did not affect; also recorded: not during phase 1 | effect on flinching behavior, phase 2 ([14]; IT 32, 160, 320 μg/rat, 10-60 minutes): dose-dependently reduces | activity following intraventricular administration [18]: inactive

CCC(=O)C(C[C@@H](C)N(C)C)(c1ccccc1)c1ccccc1 [l-Methadone, (R)-(-)-methadone]
time of peak analgesic effect ([13]; 40 μg/rat spinal, time course study): 15 min | ED50, tail-flick test ([13]; IT, cumulative dose-response): 15.6 ug/rat | antinociceptive (analgesic) effect in tail-flick test ([13]; intrathecal): dose-dependent antinociception | ED50, tail-flick antinociception ([13]; intrathecal, 95% CI 7.0-29.8): 15.6 μg/rat | approximately ED90 antinociceptive dose ([13]; spinal, tail-flick test): ~80 μg/rat
